Source: PMC9387934, “Randomized single oral dose phase 1 study of safety, tolerability, and pharmacokinetics of Iminosugar UV-4 Hydrochloride (UV-4B) in healthy subjects” (PLoS Neglected Tropical Diseases, 2022)
Values joined by “and” are separate entries in the source; they are usually repeats but may differ in a detail not shown here. Equal entries are not always repeated.

Assay: Phase 1a single ascending dose study: UV-4 plasma concentrations and PK parameters (LC-MS/MS, noncompartmental)
Format: in vivo
Settings: human plasma
Procedure: UV-4 ((2R,3R,4R,5S)-2-(hydroxymethyl)-1-(9-methoxynonyl)piperidine-3,4,5-triol, also called N-(9’-methoxynonyl)-1-deoxynojirimycin, or MON-DNJ) hydrochloride was evaluated in a first-in-human, randomized, single-center, double-blind, placebo-controlled, parallel group, single ascending dose Phase 1a clinical trial in healthy subjects (Figs 1 and 2, ClinicalTrials.gov Identifier NCT02061358 https://clinicaltrials.gov/ct2/show/NCT02061358). The primary objective was to determine the safety and tolerability of a single-ascending oral dose of UV-4 hydrochloride (Fig 3). […] The secondary objective was to determine PK parameters describing absorption and elimination of UV-4 following a single oral dose of UV-4 hydrochloride. Eight cohorts of eight subjects each were enrolled and completed the study. In each cohort, six subjects received UV-4 as the hydrochloride; two received placebo. Subjects were screened against study eligibility criteria up to four weeks (Days -28 to -2) before admission to the clinic (Day -1). Dosing was performed on an inpatient basis. Subjects remained in clinic for 48 hours post-dosing for PK sample collection and safety assessments and were discharged from the clinic on Day 3. Subjects returned to the clinic on Day 4 for additional safety assessments, then again on Day 9 ± 1 for a final follow-up visit.
Eligible subjects were healthy males and females, age 18–45 years, with a body mass index between 18 and 30 kg/m^2 inclusive and a minimum body weight of 60 kg. Subjects were considered healthy based on medical history, physical exam, vital signs, 12-lead electrocardiogram (ECG), clinical laboratory tests (hematology, blood chemistry, urinalysis), viral serology, and drug and alcohol screening. Male and female subjects of childbearing potential were required to use adequate contraception over the course of the clinical trial. […] Only subjects who met all inclusion and none of the exclusion criteria prior to administration of the investigational product were enrolled into the study (no exemptions were granted). A total of 64 subjects were enrolled (eight cohorts of eight subjects each). In each of the eight cohorts, six subjects were randomized to receive a single dose of UV-4 (3 to 1000 mg, depending on cohort) as the hydrochloride salt, and two subjects to receive placebo. Cohort size of six active subjects was based on analysis that increasing cohort size above six in a first-in-human study gains little in the ability to observe a drug induced event, and results in observing more events that are not related to study drug. Two of the eight subjects in each cohort (sentinel subjects; one active and one placebo) received their doses at least 48 h before the remaining subjects in each cohort.
On each day of use, bulk drug substance (UV-4B for solubilization, SAI Life Sciences Ltd. Telangana, India) was removed from a single-use container, weighed at the study center, and solubilized in 20 mL sterile water for injection (SWFI) (Hospira Inc. Illinois, United States of America). Weight of solid drug substance was converted to dose of UV-4 by applying purity and salt correction factor per pharmacy manual when preparing the dosing solution. UV-4B solution was administered orally with 10 mL of taste-masking agent, OraSweet-SF (Paddock Laboratories LLC, Minneapolis, United States of America) in a total volume of 30 mL, to assist in maintaining study blinding. Placebo was SWFI (20 mL) plus OraSweet-SF (10 mL). Concentrations and doses were calculated and expressed as the active free base form, UV-4. This methodology is consistent with USP<1121>, which recommends that the strength of a drug product or preparation is expressed in terms of the active moiety. Following consumption of active or placebo solution, the dosing container was rinsed with 50 mL of tap water also consumed by subjects. […]

With `COCCCCCCCCCN1C[C@H](O)[C@@H](O)[C@H](O)[C@H]1CO` [UV4] the “CONCENTRATION UV4” value (Cohort 2, nominal day 1, nominal hour 0) was “<LLOQ (0.500) ng/mL”, the “CONCENTRATION UV4” value (Cohort 3, nominal day 1, nominal hour 0) was “<LLOQ (0.500) ng/mL” and the “CONCENTRATION UV4” value (Cohort 4, nominal day 1, nominal hour 0) was “<LLOQ (0.500) ng/mL”. For the same molecule, the “CONCENTRATION UV4” value (Cohort 4, nominal day 1, nominal hour 0, individual subjects) was “<LLOQ (0.500) ng/mL and 0.569 ng/mL and 1.02 ng/mL”, the “CONCENTRATION UV4” value (Cohort 4, nominal day 1, nominal hour 0, subjects with all post-dose samples <LLOQ (treatment arm not given)) was 0.657 ng/mL and the “CONCENTRATION UV4” value (Cohort 4, nominal day 1, nominal hour 0.5) was “<LLOQ (0.500) ng/mL”. The “CONCENTRATION UV4” value (Cohort 4, nominal day 1, nominal hour 0.5, individual subjects) was 439 ng/mL and 598 ng/mL and 942 ng/mL and 1250 ng/mL and 160 ng/mL, the “CONCENTRATION UV4” value (Cohort 4, nominal day 1, nominal hour 0.5, subjects with all post-dose samples <LLOQ (treatment arm not given)) was “<LLOQ (0.500) ng/mL” and the “CONCENTRATION UV4” value (Cohort 4, nominal day 1, nominal hour 1) was “<LLOQ (0.500) ng/mL”. For the same molecule, the “CONCENTRATION UV4” value (Cohort 4, nominal day 1, nominal hour 1, individual subjects) was 589 ng/mL and 571 ng/mL and 858 ng/mL and 762 ng/mL and 642 ng/mL, the “CONCENTRATION UV4” value (Cohort 4, nominal day 1, nominal hour 1, subjects with all post-dose samples <LLOQ (treatment arm not given)) was “<LLOQ (0.500) ng/mL” and the “CONCENTRATION UV4” value (Cohort 4, nominal day 1, nominal hour 1.5) was “<LLOQ (0.500) ng/mL”. The “CONCENTRATION UV4” value (Cohort 4, nominal day 1, nominal hour 1.5, individual subjects) was 754 ng/mL and 487 ng/mL and 860 ng/mL and 621 ng/mL and 699 ng/mL, the “CONCENTRATION UV4” value (Cohort 4, nominal day 1, nominal hour 1.5, subjects with all post-dose samples <LLOQ (treatment arm not given)) was “<LLOQ (0.500) ng/mL” and the “CONCENTRATION UV4” value (Cohort 4, nominal day 1, nominal hour 2) was “<LLOQ (0.500) ng/mL”. The “CONCENTRATION UV4” value (Cohort 4, nominal day 1, nominal hour 2, individual subjects) was 583 ng/mL and 406 ng/mL and 636 ng/mL and 479 ng/mL and 610 ng/mL, the “CONCENTRATION UV4” value (Cohort 4, nominal day 1, nominal hour 2, subjects with all post-dose samples <LLOQ (treatment arm not given)) was “<LLOQ (0.500) ng/mL” and the “CONCENTRATION UV4” value (Cohort 4, nominal day 1, nominal hour 2.5) was “<LLOQ (0.500) ng/mL”. The “CONCENTRATION UV4” value (Cohort 4, nominal day 1, nominal hour 2.5, individual subjects) was 516 ng/mL and 439 ng/mL and 447 ng/mL and 365 ng/mL and 519 ng/mL, the “CONCENTRATION UV4” value (Cohort 4, nominal day 1, nominal hour 2.5, subjects with all post-dose samples <LLOQ (treatment arm not given)) was “<LLOQ (0.500) ng/mL” and the “CONCENTRATION UV4” value (Cohort 4, nominal day 1, nominal hour 3) was “<LLOQ (0.500) ng/mL”. For the same molecule, the “CONCENTRATION UV4” value (Cohort 4, nominal day 1, nominal hour 3, individual subjects) was 495 ng/mL and 428 ng/mL and 393 ng/mL and 327 ng/mL and 437 ng/mL, the “CONCENTRATION UV4” value (Cohort 4, nominal day 1, nominal hour 3, subjects with all post-dose samples <LLOQ (treatment arm not given)) was “<LLOQ (0.500) ng/mL” and the “CONCENTRATION UV4” value (Cohort 4, nominal day 1, nominal hour 4) was “<LLOQ (0.500) ng/mL”. For the same molecule, the “CONCENTRATION UV4” value (Cohort 4, nominal day 1, nominal hour 4, individual subjects) was 368 ng/mL and 298 ng/mL and 302 ng/mL and 236 ng/mL and 338 ng/mL, the “CONCENTRATION UV4” value (Cohort 4, nominal day 1, nominal hour 4, subjects with all post-dose samples <LLOQ (treatment arm not given)) was “<LLOQ (0.500) ng/mL” and the “CONCENTRATION UV4” value (Cohort 4, nominal day 1, nominal hour 6) was “<LLOQ (0.500) ng/mL”. For the same molecule, the “CONCENTRATION UV4” value (Cohort 4, nominal day 1, nominal hour 6, individual subjects) was 184 ng/mL and 187 ng/mL and 216 ng/mL and 141 ng/mL and 189 ng/mL, the “CONCENTRATION UV4” value (Cohort 4, nominal day 1, nominal hour 6, subjects with all post-dose samples <LLOQ (treatment arm not given)) was “<LLOQ (0.500) ng/mL” and the “CONCENTRATION UV4” value (Cohort 4, nominal day 1, nominal hour 9) was “<LLOQ (0.500) ng/mL”. The “CONCENTRATION UV4” value (Cohort 4, nominal day 1, nominal hour 9, individual subjects) was 101 ng/mL and 118 ng/mL and 128 ng/mL and 70.4 ng/mL and 77.3 ng/mL, the “CONCENTRATION UV4” value (Cohort 4, nominal day 1, nominal hour 9, subjects with all post-dose samples <LLOQ (treatment arm not given)) was “<LLOQ (0.500) ng/mL” and the “CONCENTRATION UV4” value (Cohort 4, nominal day 1, nominal hour 12) was “<LLOQ (0.500) ng/mL”. For the same molecule, the “CONCENTRATION UV4” value (Cohort 4, nominal day 1, nominal hour 12, individual subjects) was 54.3 ng/mL and 66.4 ng/mL and 79.7 ng/mL and 42.1 ng/mL and 37.6 ng/mL, the “CONCENTRATION UV4” value (Cohort 4, nominal day 1, nominal hour 12, subjects with all post-dose samples <LLOQ (treatment arm not given)) was “<LLOQ (0.500) ng/mL” and the “CONCENTRATION UV4” value (Cohort 4, nominal day 1, nominal hour 18) was “<LLOQ (0.500) ng/mL”. The “CONCENTRATION UV4” value (Cohort 4, nominal day 1, nominal hour 18, individual subjects) was 18.1 ng/mL and 34.0 ng/mL and 43.3 ng/mL and 16.6 ng/mL, the “CONCENTRATION UV4” value (Cohort 4, nominal day 1, nominal hour 18, subjects with all post-dose samples <LLOQ (treatment arm not given)) was “<LLOQ (0.500) ng/mL” and the “CONCENTRATION UV4” value (Cohort 4, nominal day 2, nominal hour 24, individual subjects) was 12.5 ng/mL and 26.6 ng/mL and 30.8 ng/mL and 10.2 ng/mL. For the same molecule, the “CONCENTRATION UV4” value (Cohort 4, nominal day 2, nominal hour 24, subjects with all post-dose samples <LLOQ (treatment arm not given)) was “<LLOQ (0.500) ng/mL”, the “CONCENTRATION UV4” value (Cohort 4, nominal day 2, nominal hour 36, individual subjects) was 4.31 ng/mL and 11.5 ng/mL and 12.0 ng/mL and 3.22 ng/mL and the “CONCENTRATION UV4” value (Cohort 4, nominal day 2, nominal hour 36, subjects with all post-dose samples <LLOQ (treatment arm not given)) was “<LLOQ (0.500) ng/mL”. For the same molecule, the “CONCENTRATION UV4” value (Cohort 4, nominal day 3, nominal hour 48, individual subjects) was 2.04 ng/mL and 4.82 ng/mL and 6.34 ng/mL and 1.52 ng/mL and the “CONCENTRATION UV4” value (Cohort 4, nominal day 3, nominal hour 48, subjects with all post-dose samples <LLOQ (treatment arm not given)) was “<LLOQ (0.500) ng/mL”.
